Test system: Streptomyces lividans TK24(pANT195)
Test: Viability of doxA-transformed culture incubated with daunomycin
Assay type: cell-based
Description: Cultures of S. lividans TK24 containing plasmid pANT195 and control cultures of S. lividans TK24 containing plasmid pANT849 were grown on R2YE agar medium containing 10 μg/ml of thiostrepton in standard 100 mm×15 mm plastic petri dishes for 5 days at 30° C., at which time the entire cultures had sporulated. The spores from one entire petri plate were used to inoculate 50 ml of modified YEME medium in 250 ml erlenmeyer flasks. Then 10 μg/ml thiostrepton in DMSO were added to the medium. The thiostrepton was added as selective pressure to maintain the plasmids. The cultures were grown for 48 hours at 30° C. with rotary shaking at 250 rpm, one inch throw on the shaker. After 48 hours, a 1.5 ml sample was removed for plasmid analysis to ensure the presence and size of the insert DNA containing the doxA gene using a "mini-prep" procedure according to Carter, M. J., and I. D. Milton, (1993), "An Inexpensive and Simple Method for DNA Purification on Silica Particles," Nucleic Acids Res., Vol. 21, page 1044. Restriction endonuclease digestion with BspEI and agarose gel electrophoresis generated 1.7 kbp, 2.2 kbp, and 3.14 kbp fragments which indicated an intact plasmid and insert. Then a 10 μL solution containing 100 μg of filter sterilized daunomycin-HCl in distilled water was added to the cultures for a final concentration of 2.0 μg of daunomycin per ml of culture broth. Incubation was continued for 72 hours.
The procedure of Example 1 was repeated, with the following exceptions. The cultures were grown at 28° C. rather than 30° C., for 48 hours. After 48 hours of growth, 500 μg of daunomycin-HCl were added to the cultures for a final concentration of 10.0 μg/ml of daunomycin followed by further incubation for 36 hours, instead of 72 hours.
A 50 ml culture of Streptomyces lividans TK24(pANT195) culture was prepared as in Example 1. […] The cultures were incubated for 48 hours and then extracted as described in Example 1 and analyzed by HPLC and TLC. […]

COc1cccc2c1C(=O)c1c(O)c3c(c(O)c1C2=O)C[C@@](O)(C(C)=O)C[C@@H]3O[C@H]1C[C@H](N)[C@H](O)[C@H](C)O1 [daunomycin]
state of the cultures after incubation with daunomycin (2 μg/ml of daunomycin, cultures of Examples 1 and 2): fully viable
toxicity to the host (16.7 μg/ml of daunomycin, about 8-fold concentrated mycelia in MOPS buffer pH 7.2 (Example 10)): toxic to the host
state of the doxA transformed culture at the end of incubation (22.2 μg/ml daunomycin, 48 hours, 28° C., YEME medium (Example 3)): virtually dead

Source: patent US5976830A, “Methods of producing doxorubicin” (priority 1996, dated 1999)
